Source: a melting point compilation (Tetko et al.; mined from patent text by program, amines drawn as free bases though some values may be those of a salt)

melting point | Structure (SMILES)
236 to 237 °C | CC(C)Cn1c(C(=O)O)c(-c2ccc(F)cc2)c2cc(OCc3ccccc3)ccc2c1=O
78.2 to 78.4 °C | COc1ccc(-c2cccc(Cn3cncn3)c2)cc1Cl
117 to 119 °C | NC(=O)c1c(Cl)ccc(Br)c1Cl
137 to 138 °C | COc1ccc2c(C(=O)NCCCCC(=O)O)cc3cc4c(cc3c2c1)OCO4
128 to 130 °C | Cn1c(C(F)(F)F)cc(=O)n(Cc2cc(Cl)cc(Cl)c2Cl)c1=O
384 °C | CCCn1c(=O)[nH]c2ccc(C(=O)c3ncc4ccc(C(=O)O)cn34)cc2c1=O
147 to 149 °C | CCc1cn(S(=O)(=O)c2ccc(C)cc2)c2cc(C(=O)Nc3c(Cl)cncc3Cl)ccc12
90 to 91.5 °C | COC(=O)[C@H](Cc1cc(Cl)c(OCCCNC(=O)OC(C)(C)C)c(Cl)c1)NC(=O)C(F)(F)F
100 to 102 °C | O=C(NCC1Cc2cccc(-c3ccc(C(F)(F)F)cc3)c2O1)OCc1ccccc1 (stereo not given)
152 °C | CCCCOc1ccc(-c2ccc(C)c(C#N)c2C#N)cc1
210 °C | O=C1CCC2=C1C(c1ccc(F)c(Br)c1)C1=C(CCCCS1)N2 (stereo not given)
198 to 199 °C | O=C(O)c1cc(-n2c(-c3ccccc3)cc3c2CCC3)ccc1O
84 to 86 °C | Cc1ccc(S(=O)(=O)OCC2Cc3cc(F)cc(Br)c3O2)cc1 (stereo not given)
162 °C | CC(C)NNC(=O)NC1c2ccccc2Oc2ccccc21
227 to 229 °C | O=C(c1ccc([N+](=O)[O-])cc1)N1Cc2ccnn2Cc2ccccc21
175 to 176 °C | Cc1cccc(CCC(=O)c2ccccc2)c1NC(=O)CC1c2ccccc2Oc2ccccc21
180 to 183 °C | COc1cccc(N2CCN(CCC(=O)O)CC2)c1
235 to 237 °C | C=CC(=O)NC1Cc2ccc(-c3ccc(=O)[nH]n3)cc2C1 (stereo not given)

The next lines start with the compound.

Structure (SMILES) | melting point
COc1ccc(P(=O)(c2ccc(OC)cc2)c2ccc(OC)cc2)cc1 | 145 °C
C=CC(C)=CC(=CC)NCc1ccc2nc(NC3CCN(C)CC3)n(Cc3nc(C)ccc3O)c2c1 | 141 °C
O=C1CCCc2[nH]c(=O)ccc21 | 302 to 303 °C
CC(C)(C)OC(=O)N[C@@H](Cc1ccccc1)C(=O)CCC(=O)N[C@@H](Cc1c[nH]c2ccccc12)C(=O)O | 141 to 143 °C
S=C1Nc2ccccc2Sc2nccn21 | 156 to 159 °C
OCCc1c[nH]c2ccc(F)cc12 | 59 to 61 °C
CNc1nc(-c2ccc(F)cc2)cc(C(C)C)n1 | 75 to 76 °C
COc1ccc2c(c1)c(-c1cc3c(Cl)ccnc3[nH]1)cn2C | 250 to 252 °C
O=C(Cn1c(-c2ccc(F)cc2)ncc(NC(=O)OCc2ccccc2)c1=O)N[C@@H](Cc1ccccc1)C(=O)C(F)(F)C(=O)NCc1ccccc1 | 185 to 186 °C
CCOc1cc(N)c(Cl)cc1C(=O)NCC1CN(CC2CCN(C(N)=O)CC2)CCO1 (stereo not given) | 201 to 207 °C
CC(C)(C)OCCOc1cc(N)c([N+](=O)[O-])cc1I | 144 to 146 °C
CCCC(CCC)C(=O)NC(C)C(=O)OC (stereo not given) | 72 to 73 °C
CCCc1[nH]c2cc(C(=O)O)ccc2c1C(=O)C1CCCCC1 | 217 to 218 °C
O=C1Nc2cccc(-c3cccc(NC(=O)c4ccc([N+](=O)[O-])cc4)c3)c2/C1=C/c1ccc[nH]1 | 157 to 159 °C
NC(=O)c1csc2ccc([N+](=O)[O-])cc12 | 243 to 250 °C
CN1CC(CO)CC2(O)c3cccc4[nH]cc(c34)CC12 (stereo not given) | 175 to 179 °C
O=C1Nc2ccc(Cl)cc2CN2CCCC12 (stereo not given) | 97 to 99 °C
[N-]=[N+]=Nc1cc(Cl)nc(-c2ccc([N+](=O)[O-])o2)n1 | 114 to 116 °C
O=C(O)[C@@H]1CCCN1C(=O)CCBr | 83 to 85 °C
CN(C)c1nnc(-c2ccc3occ(-c4cccc(OC(F)(F)F)c4)c3c2)o1 | 105 to 106 °C
CC(C)CC[C@@H]1[C@H](c2ccccc2)OC(=O)N1CCCN1CCCCC1 (racemic) | 111 to 112 °C
N#Cc1c(N2CCCCC2)cc(-c2cccs2)c2c1Cc1ccccc1-2 | 148 to 150 °C
